Laboratory results published in patent publication US5776949A, “2-(1H) quinolinone compounds” (Adir et Compagnie, priority 1997, dated 1998).

Tests used:
[1] = tested on: glutamate-dependent convulsive attacks; experiment: Anti-convulsant activity in vivo: convulsions triggered by sound stimulus in DBA2 mice
Description: Likewise, in the DBA2 mice, glutamate-dependent convulsive attacks may be triggered by subjecting the animals to a sound stimulus of high frequency (14 kHz, 103 dB). The anticonvulsion effects are objectivated by the capacity to prevent convulsions arrival and the death which follows.

[2] = tested on: cerebral infarct; experiment: Antineurodegenerative activity in vivo: occlusion of the middle cerebral artery (MCA), infarct volume; details: rats; for reduction of cortical edematous infarct volume: 20 mg/kg i.v., 1 hour after arterial occlusion
Description: The occlusion of the sylvian artery (or middle cerebral artery MCA) is at the origin of about 70% of cases of cerebral vascular accidents in man. This type of cerebral ischemia may be reproduced very precisely in rats by intracerebral ligature of the MCA. This definitive occlusion causes, within 24 hours, the formation of a striatocortical infarct of identical location to that observed in a clinical situation. The infarct is perfectly delimited and is therefore histologically measurable. This infarct is of the edematous type. It changes within the following 3 days into a definitive necrotic infarct. The excessive liberation of glutamate is a major pathological feature for the genesis of the cerebral infarct. An antiischemic neuroprotective compound should prevent the formation of this infarct at 24 hours and on its necrotic maturation at 96 hours.
The compounds of the invention are compounds with a potent antiischemic effect, even during post-ischemic delayed treatment (treatment by the i.v. route 1 hour after the arterial occlusion). […] This is a major activity since it also prevents necrotic maturation. Thus, when a 3-day follow-up treatment (10 mg/kg i.p. twice per day) is carried out after the initial i.v. injection (20 mg/kg), the compound of Example 1decreases the volume of the terminal infarct by 44%.

[3] = tested on: AMPA receptor; experiment: AMPA-induced currents in Xenopus oocytes injected with rat cerebral cortex poly(A+) mRNA (2-electrode voltage-clamp); type: cell-based
Description: (§1) Their efficacy may be studied by means of electrophysiological techniques in vitro and especially by means of the measurement of the currents induced by the glutamatergic agonists in the oocyte of Xenopus.
(§2) Xenopus oocytes are injected with 50 ng of poly(A^+) mRNA isolated from rat cerebral cortex and incubated for 2 to 3 days at 18° C. so as to allow the protein expression thereof. The inflow of currents induced by the EAAs are measured in a medium of composition: NaCl (82.5 mM), KCl (2.5 mM), CaCl2 (1 mM), MgCl2 (1 mM), NaH2 PO4 (1 mM), HEPES (5 mM), pH 7.4 by the 2 electrode Voltage-clamp method (voltage=-60 mV). To measure the currents induced by NMDA and glycine, MgCl2 is absent from the medium and CaCl2 is supplied at the concentration of 2 mM. The EAA agonists inducing the currents are used at the following concentrations: kainate: 100 μM; AMPA: 30 μM; glycine/NMDA: 3/30 μM. The product studied is applied 30 seconds before and during the application of the agonist.

[4] = tested on: NMDA receptor; experiment: glycine/NMDA-induced currents in Xenopus oocytes injected with rat cerebral cortex poly(A+) mRNA (2-electrode voltage-clamp); type: cell-based; details: glycine/NMDA 3/30 μM; MgCl2 absent, CaCl2 2 mM; product applied 30 seconds before and during agonist
Description: as §1, §2

[5] = Solubility in water

Compound	inhibition of mortality ([1]; 50 mg/kg i.p., 30 minutes before sound stimulus)	ED50 ([1]; Mus musculus, ip, 0.5 h, i.p. 30 minutes before sound stimulus (14 kHz, 103 dB), read-out: ED50 (anticonvulsant protection)) [mg/kg]	anticonvulsant effects (in words) ([1]; i.p. 30 minutes before sound stimulus)	decrease of the volume of the terminal infarct ([2]; 20 mg/kg i.v. then 3-day follow-up 10 mg/kg i.p. twice per day) [%]	reduction of cortical edematous infarct volume [2] [%]	IC50 ([3]; AMPA 30 μM, voltage -60 mV, product applied 30 seconds before and during agonist) [µM]	selectivity for the AMPA receptor ([3]; AMPA versus NMDA, Xenopus oocytes) [times]	IC50 [4] [µM]	solubility in water (in words) [5]
O=c1[nH]c2cc([N+](=O)[O-])ccc2cc1S(=O)(=O)O [Example 1, 7-Nitro-2-(1H)-quinolinone-3-sulfonic acid]	more than 80%	26.9	strongly protects the animals	44	45	–	–	–	–
O=c1[nH]c2cc([N+](=O)[O-])c([N+](=O)[O-])cc2cc1S(=O)(=O)O [Example 2, 6,7-Dinitro-2-(1H)-quinolinone-3-sulfonic acid]	–	–	–	–	27	0.2	40	8	soluble in water
